{"source": "patent US6087376A", "about": "(priority 1998, dated 2000)", "key": {"[1]": {"test_system": "rat striatal synaptic vesicles", "assay": "[3H]DA release from striatal synaptic vesicles preloaded with [3H]DA", "assay_type": "biochemical", "procedure": "The homogenate was then centrifuged at 2,000×g for 10 min at 4° C. and the resulting supernatant was centrifuged at 10,000×g for 30 min at 4° C. Synaptosomes (buffy coat) were separated from the underlying mitochondria and cellular debris (reddish pellet) by gentle swirling in 2 mL of 0.32 M sucrose. The enriched synaptosome fraction (2.0 mL) was subjected to osmotic shock by addition of 7 mL distilled H2 0 and was homogenized with 5 up and down strokes of the TEFLON pestle. The osmolarity was restored by the addition of 900 μL of 0.25 M HEPES and 900 μL of 1.0 M neutral potassium-tatrate buffer (pH 7.5) followed by a 20 min centrifugation (20,000×g at 4° C.). The supernatant was then centrifuged for 60 min (55,000×g at 4° C.).\nThe final vesicle pellet from a pool of striata from three rats was resuspended in 3 mL of release assay buffer (in mM: 25 HEPES, 100 L-(+)-tartaric acid dipotassium salt, 0.05 EGTA, 0.10 EDTA, 2 Mg^2+ -ATP, and 1.7 ascorbic acid, pH 7.4) and then incubated with [^3 H]DA (0.3 μM) for 8 min at 37° C. […] [^3 H]DA efflux represents the net result of events, i.e., release and reuptake. […] The reaction was terminated by addition of 2.5 mL of ice-cold assay buffer containing 2 mM MgSO4. Samples were rapidly filtered through Whatman GF/F filters using the Brandel cell harvester.\nThe amount of drug-induced [^3 H]DA release from synaptic vesicles was calculated by subtracting the amount of tritium remaining in the drug-exposed samples from that remaining in the control samples (in the absence of drug). The amount of drug-induced [^3 H]DA release was then divided by the amount of tritium remaining in the control samples and was expressed as a percentage of control.\nConcentration-response and kinetic data were analyzed by repeated-measures one-way ANOVA and between-group one-way ANOVA, respectively. When appropriate, Fisher's least significant difference post hoc test was used to determine significant differences between treatment means. IC50 and EC50 values were obtained by an iterative nonlinear least-squarescurve-fitting program (GraphPAD-PRIZM: GraphPAD, San Diego, Calif., U.S.A.) for one-site competition and sigmoidal concentration response, respectively. The t1/2 was obtained by an iterative nonlinear least-squares curve-fitting program for one-phase decay. KD and Bmax values were obtained by Scatchard analysis using an iterative linear least-squares curve-fitting program."}, "[2]": {"conditions": "cited from earlier work"}, "[3]": {"test_system": "monoamine oxidase", "conditions": "cited from earlier work"}, "[4]": {"test_system": "tachycardia and hypertension", "conditions": "in vivo; cited from earlier work"}, "[5]": {"test_system": "nicotinic receptors in mouse brain", "conditions": "in vivo; cited from earlier work"}, "[6]": {"test_system": "rat striatal slices", "assay": "Endogenous DA and DOPAC content in striatal slices following superfusion with lobeline", "assay_type": "cell-based", "procedure": "Data are presented as mean±S.E. ng/mg protein. *P<0.05, different from control, P<0.05, **P<0.001, different from control; Dunnett's post hoc test. n=8 rats.\nAt the end of the superfusion experiment, slices were processed in the endogenous DA and DOPAC content assay described below.\nAn aliquot (500 μL) of 0.1 M perchloric acid (pH 1.0) containing 0.14-0.29 μM 3,4-dihydroxybenzylamine hydrobromide (DHBA, internal standard) was added to 100 mg of striatum and the mixture was sonicated with an Ultrasonic Processor (40-Watt Model, Sonics & Materials, Danbury, Conn.). The homogenate was centrifuged at 30,000×g for 10 min at 4° C., and the supernatant was filtered (0.2 μm nylon membrane). An aliquot (50 μL) of the filtrate (1:1, 1:50, 1:100, 1:200 or 1:500 dilution with 0.1 M perchloric acid) was injected onto the high pressure liquid chromatograph with electrochemical detection (HPLC-EC) system. The HPLC-EC system consisted of syringe loading injector (Model 7725, Rheodyne L. P., Cotati, Calif.), Beckman Model 116 HPLC pump (Beckman, Fullerton, Calif.), ESA ODS ultrasphere C18 reverse-phase column ([…]×75 mm, 3 micron particle size, ESA, Bedford, Mass.), and an ESA 5100A coulometric electrochemical detector with a model 5011 detector cell (E1=+0.05 V, E2=+0.32 V). The eluent was 6% acetonitrile, 10 μM EDTA, 1.4 mM 1-octane-sulfonic acid and 76 mM sodium phosphate monobasic (pH 3.1). All separations were performed at room temperature at a flow rate of 1 ml/min. Complete separation of DA and DOPAC and reequilibration of the system required 9 min. The retention time of DA, DOPAC and DHBA standards was used to identify the relevant peak. Peak heights were used to calculate the detected amount of compound based on standard curves. The detection limit of DA and DOPAC was 0.2 and 0.05 pg/50 μL injected, respectively. Recovery of internal standard was routinely 75%."}, "[7]": {"test_system": "tobacco smoking cessation", "conditions": "short-term use as smoking deterrent; cited from earlier work"}, "[8]": {"test_system": "anesthetized rats", "conditions": "urethane and pentobarbital anesthetized rats; cited from earlier work"}, "[9]": {"test_system": "learning and memory", "conditions": "in vivo; cited from earlier work"}, "[10]": {"test_system": "nicotine-evoked [3H]dopamine release from rat striatal slices; nicotinic receptors", "assay": "Lobeline inhibition of nicotine-evoked [3H]DA release from rat striatal slices", "assay_type": "cell-based", "conditions": "low concentrations", "procedure": "Striatal slices were obtained from rat brain, preincubated with [^3 H]dopamine (0.1 μM) for 30 min and subsequently superfused with Kreb's buffer for 60 min."}, "[11]": {"target": "central nicotinic receptors", "conditions": "read-out: Ki, displacement of [3H]nicotine binding; cited from earlier work"}, "[12]": {"test_system": "mouse striatal synaptosomes", "conditions": "cited from earlier work"}}, "note": "Several values for one entry are separate records, joined by “and”; a condition that tells them apart may be missing. Equal values may be shown once.", "data": [{"smiles": "CN1[C@@H](CC(=O)c2ccccc2)CCC[C@H]1C[C@H](O)c1ccccc1", "note": "[Lobeline, 2-[G-(β-hydroxyphenethyl)-1-methyl-2-piperidyl]-acetophenone]", "values": [{"measurement": "lowest concentration to evoke [3H]DA release from vesicles", "setting": "[1]; 8 min, 37° C.", "result": 10, "unit": "µM"}, {"measurement": "EC50", "setting": "[1]; 8 min, 37° C., read-out: EC50, evoked [3H]DA release from synaptic vesicles", "result": "25.3 µM and 25 µM"}, {"measurement": "t1/2 of [3H]DA efflux from vesicles", "setting": "[1]; drug at 10 times the EC50", "result": "1.58 ± 0.09", "unit": "min"}, {"measurement": "pKa", "setting": "[2]", "result": 8.3}, {"measurement": "inhibition of monoamine oxidase", "setting": "[3]", "result": "does not inhibit monoamine oxidase"}, {"measurement": "cardiovascular effects", "setting": "[4]", "result": "tachycardia and hypertension"}, {"measurement": "number of nicotinic receptors after chronic treatment", "setting": "[5]", "result": "did not increase the number of nicotinic receptors"}, {"measurement": "DOPAC overflow from rat striatal slices", "setting": "[6]", "result": "DOPAC overflow from rat striatal slices is observed"}, {"measurement": "effect on DA or DOPAC content in superfused slices", "setting": "[6]; lobeline 0.1-10 μM, 60 min", "result": "did not alter DA or DOPAC content"}, {"measurement": "effect on endogenous DA content in superfused slices", "setting": "[6]; lobeline 30-100 μM, 60 min", "result": "significantly depleted endogenous DA content"}, {"measurement": "effect on endogenous DOPAC content in superfused slices", "setting": "[6]; lobeline 30-100 μM, 60 min", "result": "increased DOPAC content"}, {"measurement": "acute toxicity", "setting": "[7]", "result": "nausea, severe heartburn and dizziness"}, {"measurement": "cardiovascular effects", "setting": "[8]", "result": "bradycardia and hypotension"}, {"measurement": "learning and memory", "setting": "[9]", "result": "improvement of learning and memory"}, {"measurement": "concentrations inhibiting nicotine-evoked DA release", "setting": "[10]", "result": "0.1 to 1", "unit": "µM"}, {"measurement": "Ki", "setting": "[11]", "result": "0.005 to 0.03", "unit": "µM"}, {"measurement": "DA release from superfused striatal synaptosomes", "setting": "[12]", "result": "increase DA release"}]}]}
